Measurements published in US5520901A, “Method for the recovery of iodine from an environment” (General Electric Company, priority 1993, dated 1996).

Experiments:
[1] = Final pH of treated solution; assay type: physicochemical; details: 0.2 grams of reagent; water 4.36
From the text: The basicity of certain reagents was examined in terms of the reagents' relative ability to recover iodine. […] The amount of each reagent was 0.2 grams.

[2] = cited from earlier work

Row | SMILES | Final pH of Treated Solution [1] | Water Solubility [2]
1 | [Ca+2].[OH-].[OH-] [Ca(OH)2, calcium hydroxide] | 12.23 | 
2 | O=C(O)O [CaCO3, Calcium carbonate] | 7.12 | 
3 | [Mg+2].[OH-].[OH-] [Mg(OH)2, magnesium hydroxide] | 8.86 | 

Second part, led by results:

Row | Final pH of Treated Solution [1] | SMILES | Water Solubility [2]
4 | 12.34 | [O]=[Ca] [CaO, calcium oxide] | 0.131 g/100 cc
5 | 7.96 | O=C(O)O [MgCO3, magnesium carbonate] | 
6 | 7.33 | [O]=[Mg] [MgO, magnesium oxide] | 0.001 g/100 cc
